Data published in ChEMBL document CHEMBL1201862, “PubChem BioAssay data set” (2004).
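These data come from cells grown in 96-well plates and exposed to compound for 48 hours at five concentrations. Here, GI50 denotes the concentration required for 50% inhibition of growth.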 Calls of active or inactive are those of the source. Cut-off read from the data, not from the text of the source: active = GI50 up to about 1.1 µM and inactive = higher.

Tests used:
Experiment in all cases: growth of human tumour cells (NCI), 48 h
HCT-116 = tested on: HCT-116
SNB-75 = tested on: SNB-75
SR = tested on: SR
SK-MEL-28 = tested on: SK-MEL-28
EKVX = tested on: EKVX
UACC-62 = tested on: UACC-62
KM12 = tested on: KM12
OVCAR-3 = tested on: OVCAR-3
SK-MEL-5 = tested on: SK-MEL-5
NCI-H23 = tested on: NCI-H23
NCI-H226 = tested on: NCI-H226
HT-29 = tested on: HT-29
NCI-H460 = tested on: NCI-H460
COLO 205 = tested on: COLO 205
MOLT-4 = tested on: MOLT-4
SW-620 = tested on: SW-620
DU-145 = tested on: DU-145
RPMI-8226 = tested on: RPMI-8226
SF-539 = tested on: SF-539
A549 = tested on: A549

Row | Structure (SMILES) | GI50 (HCT-116) | GI50 (SNB-75) | GI50 (SR) | GI50 (SK-MEL-28) | GI50 (EKVX) | GI50 (UACC-62) | GI50 (KM12) | GI50 (OVCAR-3) | GI50 (SK-MEL-5) | GI50 (NCI-H23) | GI50 (NCI-H226) | GI50 (HT-29) | GI50 (NCI-H460) | GI50 (COLO 205) | GI50 (MOLT-4) | GI50 (SW-620) | GI50 (DU-145) | GI50 (RPMI-8226) | GI50 (SF-539) | GI50 (A549)
1 | COc1ccc(Nc2nc3cc(C(F)(F)F)ccc3nc2C(=O)O)cc1 | 15.5 µM (inactive) | 17.6 µM (inactive) | 11.1 µM (inactive) | 31.7 µM (inactive) | 22.9 µM (inactive) | 13.6 µM (inactive) | 24 µM (inactive) | 12.6 µM (inactive) | 16.7 µM (inactive) | 14.4 µM (inactive) | 15.6 µM (inactive) | 30.3 µM (inactive) | 23.9 µM (inactive) | 21.3 µM (inactive) | 7.87 µM (inactive) | 21.6 µM (inactive) | 20.4 µM (inactive) |  |  | 
2 | CCOC(=O)c1nc2ccccc2nc1Oc1cc(OC)cc(OC)c1 | > 100 µM (inactive) |  | > 100 µM (inactive) | > 100 µM (inactive) | 60.1 µM (inactive) | > 100 µM (inactive) | 76.9 µM (inactive) | > 100 µM (inactive) | > 100 µM (inactive) |  | > 100 µM (inactive) | > 100 µM (inactive) | 39.5 µM (inactive) | 81.5 µM (inactive) | > 100 µM (inactive) | > 100 µM (inactive) | > 100 µM (inactive) | > 100 µM (inactive) | 61.7 µM (inactive) | > 100 µM (inactive)
3 | CN1CCN(c2ccc3nc(C4=C(O)C(=O)c5c(nc(CO)n5C)C4=O)[nH]c3n2)CC1 | > 100 µM (inactive) | 24.6 µM (inactive) |  | > 100 µM (inactive) | > 100 µM (inactive) | 74.3 µM (inactive) | > 100 µM (inactive) | > 100 µM (inactive) |  | > 100 µM (inactive) | > 100 µM (inactive) | > 100 µM (inactive) | > 100 µM (inactive) | > 100 µM (inactive) | 56.2 µM (inactive) | > 100 µM (inactive) | > 100 µM (inactive) | 93.8 µM (inactive) | 20.9 µM (inactive) | > 100 µM (inactive)
4 | Cc1ccc(CC(=O)Nc2ccc(NC(=O)/C=C/NC(=O)/C=C/c3ccc(-c4ccccc4)cc3)cc2C(=O)c2ccccc2)cc1 | 1.12 µM (active) | 1.93 µM (inactive) |  | 3.03 µM (inactive) | 1.32 µM (inactive) | 2.16 µM (inactive) | 2.93 µM (inactive) | 1.88 µM (inactive) | 2.09 µM (inactive) | 1.85 µM (inactive) | 2.42 µM (inactive) | 5.06 µM (inactive) | 1.87 µM (inactive) | 1.75 µM (inactive) | 4.17 µM (inactive) | 1.57 µM (inactive) | 3.94 µM (inactive) | 2.4 µM (inactive) | 1.67 µM (inactive) | 1.77 µM (inactive)
5 | CC(=O)c1nc2ccccc2n1CC(=O)c1ccc(Cl)cc1 | 2.01 µM (inactive) |  | 4.84 µM (inactive) | 8.83 µM (inactive) | 38.2 µM (inactive) | 2.02 µM (inactive) | 3.02 µM (inactive) | 4.37 µM (inactive) |  | 7.64 µM (inactive) | 12 µM (inactive) | 12.1 µM (inactive) | 2.45 µM (inactive) | 20.9 µM (inactive) | 4.05 µM (inactive) | 2.67 µM (inactive) | 13.4 µM (inactive) | 3.65 µM (inactive) | 7.36 µM (inactive) | 3.17 µM (inactive)
6 | O=C(/C=C1\C[C@H]2C=Nc3ccccc3C(=O)N2C1)NCCCCNC(=O)/C=C1\C[C@H]2C=Nc3ccccc3C(=O)N2C1 | 12.3 µM (inactive) | 16.3 µM (inactive) |  | 15.8 µM (inactive) | 16.7 µM (inactive) | 15.3 µM (inactive) | 17.5 µM (inactive) | 7.82 µM (inactive) | 12.8 µM (inactive) | 11.3 µM (inactive) | 13.8 µM (inactive) | 14.2 µM (inactive) | 17.7 µM (inactive) | 4.21 µM (inactive) | 2.91 µM (inactive) | 2.55 µM (inactive) | 15.2 µM (inactive) | 4.24 µM (inactive) | 14.9 µM (inactive) | 20.7 µM (inactive)
7 | Cc1ccc(-c2nc(Cc3n[nH]c(-c4ccc(C)cc4)n3)n[nH]2)cc1 | 36.1 µM (inactive) | 3.2 µM (inactive) |  | > 100 µM (inactive) | > 100 µM (inactive) | 4.86 µM (inactive) | > 100 µM (inactive) | > 100 µM (inactive) | > 100 µM (inactive) | 18.3 µM (inactive) |  | > 100 µM (inactive) |  | > 100 µM (inactive) | > 100 µM (inactive) | > 100 µM (inactive) | > 100 µM (inactive) | > 100 µM (inactive) | > 100 µM (inactive) | > 100 µM (inactive)
8 | CCCCCCNC(=O)c1cc(NCc2cc(OC)ccc2OC)ccc1O | 21.1 µM (inactive) | 26.1 µM (inactive) |  | 31.8 µM (inactive) | 23.9 µM (inactive) | 15 µM (inactive) | 24.8 µM (inactive) | 0.865 µM (active) | 14.5 µM (inactive) | 24.7 µM (inactive) | 20 µM (inactive) | 31.3 µM (inactive) | 24.7 µM (inactive) | 19 µM (inactive) | 25.7 µM (inactive) | 30.7 µM (inactive) | 24.2 µM (inactive) | 12.2 µM (inactive) | 18.5 µM (inactive) | 29.6 µM (inactive)
9 | O=C1c2ccccc2C(=O)N1CCc1nc(-c2ccccc2)c[nH]1 | > 100 µM (inactive) | > 100 µM (inactive) | > 100 µM (inactive) | > 100 µM (inactive) | > 100 µM (inactive) | > 100 µM (inactive) | > 100 µM (inactive) | > 100 µM (inactive) | > 100 µM (inactive) | > 100 µM (inactive) | > 100 µM (inactive) | > 100 µM (inactive) | > 100 µM (inactive) | > 100 µM (inactive) | > 100 µM (inactive) | > 100 µM (inactive) | > 100 µM (inactive) |  | > 100 µM (inactive) | > 100 µM (inactive)
10 | CN(C)Cc1cc(C(=O)/C=C/c2ccc(/C=C/C(=O)c3cc(CN(C)C)c(O)c(CN(C)C)c3)cc2)cc(CN(C)C)c1O | 15.2 µM (inactive) | > 100 µM (inactive) | 22.8 µM (inactive) | 29 µM (inactive) | 39.2 µM (inactive) | 25.9 µM (inactive) | 17.7 µM (inactive) | 32.1 µM (inactive) | 42.9 µM (inactive) | 18.7 µM (inactive) |  | 13.5 µM (inactive) |  | 14.4 µM (inactive) | 12.7 µM (inactive) | 20.8 µM (inactive) | 38.5 µM (inactive) | 23.4 µM (inactive) | 24.4 µM (inactive) | 43 µM (inactive)
11 | CN1CCc2c(sc3ncn(C)c(=N)c23)C1 | > 100 µM (inactive) | > 100 µM (inactive) |  | > 100 µM (inactive) | > 100 µM (inactive) | > 100 µM (inactive) | > 100 µM (inactive) | > 100 µM (inactive) | > 100 µM (inactive) | > 100 µM (inactive) | > 100 µM (inactive) | > 100 µM (inactive) | > 100 µM (inactive) | > 100 µM (inactive) | > 100 µM (inactive) | > 100 µM (inactive) | > 100 µM (inactive) | > 100 µM (inactive) | > 100 µM (inactive) | > 100 µM (inactive)
12 | CCCSC1=N/C(=C\c2ccco2)C(=O)N1 | > 100 µM (inactive) | 97.7 µM (inactive) |  | > 100 µM (inactive) | 67.3 µM (inactive) | > 100 µM (inactive) | > 100 µM (inactive) | > 100 µM (inactive) |  | > 100 µM (inactive) | > 100 µM (inactive) | > 100 µM (inactive) | > 100 µM (inactive) | > 100 µM (inactive) | > 100 µM (inactive) | > 100 µM (inactive) | > 100 µM (inactive) | > 100 µM (inactive) | > 100 µM (inactive) | > 100 µM (inactive)
13 | CCOC(=O)CN1C(=O)c2ccc(NC(=O)C(=O)O)cc2S1(=O)=O | > 100 µM (inactive) |  | > 100 µM (inactive) | > 100 µM (inactive) | > 100 µM (inactive) | > 100 µM (inactive) | > 100 µM (inactive) |  | > 100 µM (inactive) | > 100 µM (inactive) | > 100 µM (inactive) | > 100 µM (inactive) | > 100 µM (inactive) | > 100 µM (inactive) | > 100 µM (inactive) | > 100 µM (inactive) | > 100 µM (inactive) | > 100 µM (inactive) |  | > 100 µM (inactive)
14 | COc1ccc(/C=C2\OC(=O)C(Cl)=C2c2ccc(OC)cc2)cc1 |  | > 100 µM (inactive) | > 100 µM (inactive) | > 100 µM (inactive) | > 100 µM (inactive) | > 100 µM (inactive) | > 100 µM (inactive) | > 100 µM (inactive) | > 100 µM (inactive) |  |  | > 100 µM (inactive) | > 100 µM (inactive) | > 100 µM (inactive) | > 100 µM (inactive) | > 100 µM (inactive) | > 100 µM (inactive) | > 100 µM (inactive) | > 100 µM (inactive) | > 100 µM (inactive)
15 | COc1cc(S(=O)(=O)Nc2nc(-c3ccc(/N=C/c4cccs4)cc3)cs2)ccc1Cl | 54.6 µM (inactive) | 33.8 µM (inactive) | 21.7 µM (inactive) | > 100 µM (inactive) | > 100 µM (inactive) | 19.8 µM (inactive) | 67.1 µM (inactive) | 27.5 µM (inactive) | > 100 µM (inactive) | 47.1 µM (inactive) | > 100 µM (inactive) | > 100 µM (inactive) | > 100 µM (inactive) | > 100 µM (inactive) | 27.5 µM (inactive) | 35.5 µM (inactive) | > 100 µM (inactive) |  | 34 µM (inactive) | > 100 µM (inactive)
